# Assay results published in ChEMBL document CHEMBL3044779, “The action of herbicides on fatty acid biosynthesis and elongation in barley and cucumber” (Pest Manag Sci, 2010).
# pIC50: −log10 of the molar value. The source made the active and inactive calls. The calls are words filed in the database; no cut-off is given here.
# Legend:
# [1] = test system: Cucumis sativus; test: Inhibition of fatty acid synthesis in Cucumis sativus (cucumber) using [14C]acetate assessed as [14C]-labeled 20C fatty acid level at 100 uM after 3 hr by liquid scintillation counting (reference value: 9 +/- 0.9%); assay type: functional; design: scale not given: the % may be the effect or the level left
# [2] = molecular target: T1, Acetyl-CoA carboxylase (Zea mays, UniProt Q3V4E6); test: Inhibition of Zea mays (maize) cytosolic ACCase using acetyl-coA as substrate assessed as inhibition of [14C]NaHCO3 incorporation into malonyl-coA incubated for 10 min prior to substrate addition measured for 20 min by liquid scintillation counting
# T1 sequence (Q3V4E6 whole entry): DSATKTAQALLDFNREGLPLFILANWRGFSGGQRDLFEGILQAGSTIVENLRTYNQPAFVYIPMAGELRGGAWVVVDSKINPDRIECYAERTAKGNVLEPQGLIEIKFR
# [3] = test system: Cucumis sativus; test: Inhibition of fatty acid synthesis in Cucumis sativus (cucumber) using [14C]malonate assessed as [14C]-labeled 24C fatty acid level at 100 uM after 3 hr by liquid scintillation counting (reference value: 9 +/- 2.5%); assay type: functional; design: scale not given: the % may be the effect or the level left
# [4] = test system: Hordeum vulgare; test: Inhibition of fatty acid synthesis in Hordeum vulgare (barley) using [14C]acetate assessed as [14C]-labeled 22C fatty acid level at 100 uM after 3 hr by liquid scintillation counting (reference value: 8.3 +/- 0.9%); assay type: functional; design: scale not given: the % may be the effect or the level left
# [5] = molecular target: T1, Acetyl-CoA carboxylase; test: Inhibition of Zea mays (maize) chloroplastic ACCase using acetyl-coA as substrate assessed as inhibition of [14C]NaHCO3 incorporation into malonyl-coA incubated for 10 min prior to substrate addition measured for 20 min by liquid scintillation counting
# [6] = test system: Hordeum vulgare; test: Inhibition of fatty acid synthesis in Hordeum vulgare (barley) using [14C]malonate assessed as [14C]-labeled 18C fatty acid level at 100 uM after 3 hr by liquid scintillation counting (reference value: 22.8 +/- 2.7%); assay type: functional; design: scale not given: the % may be the effect or the level left
# [7] = test system: Hordeum vulgare; test: Inhibition of fatty acid synthesis in Hordeum vulgare (barley) using [14C]acetate assessed as [14C]-labeled 20C fatty acid level at 100 uM after 3 hr by liquid scintillation counting (reference value: 3.8 +/- 0.6%); assay type: functional; design: scale not given: the % may be the effect or the level left
# [8] = test system: Hordeum vulgare; test: Inhibition of fatty acid synthesis in Hordeum vulgare (barley) using [14C]malonate assessed as [14C]-labeled 20C fatty acid level at 100 uM after 3 hr by liquid scintillation counting (reference value: 14.5 +/- 1.7%); assay type: functional; design: scale not given: the % may be the effect or the level left
# [9] = test system: Hordeum vulgare; test: Inhibition of fatty acid synthesis in Hordeum vulgare (barley) using [14C]malonate assessed as [14C]-labeled 22C fatty acid level at 100 uM after 3 hr by liquid scintillation counting (reference value: 31.3 +/- 1.6%); assay type: functional; design: scale not given: the % may be the effect or the level left
# [10] = test system: Hordeum vulgare; test: Inhibition of fatty acid synthesis in Hordeum vulgare (barley) using [14C]malonate assessed as [14C]-labeled 26C fatty acid level at 100 uM after 3 hr by liquid scintillation counting (reference value: 8.3 +/- 0.4%); assay type: functional; design: scale not given: the % may be the effect or the level left
# [11] = test system: Hordeum vulgare; test: Inhibition of fatty acid synthesis in Hordeum vulgare (barley) using [14C]acetate assessed as [14C]-labeled 18C fatty acid level at 100 uM after 3 hr by liquid scintillation counting (reference value: 53.7 +/- 0.7%); assay type: functional; design: scale not given: the % may be the effect or the level left
# [12] = test system: Cucumis sativus; test: Inhibition of fatty acid synthesis in Cucumis sativus (cucumber) using [14C]malonate assessed as [14C]-labeled 16C fatty acid level at 100 uM after 3 hr by liquid scintillation counting (reference value: 8.5 +/- 1.4%); assay type: functional; design: scale not given: the % may be the effect or the level left
# [13] = test system: Hordeum vulgare; test: Inhibition of fatty acid synthesis in Hordeum vulgare (barley) using [14C]malonate assessed as [14C]-labeled 24C fatty acid level at 100 uM after 3 hr by liquid scintillation counting (reference value: 20 +/- 1.2%); assay type: functional; design: scale not given: the % may be the effect or the level left
# [14] = test system: Cucumis sativus; test: Inhibition of fatty acid synthesis in Cucumis sativus (cucumber) assessed as inhibition of [14C]acetate incoporation in total fatty acids at 100 uM measured as total disintegration per g of fresh weight after 3 hr by liquid scintillation counting (reference value: 12.1 +/- 1.4%); assay type: functional
# [15] = test system: Hordeum vulgare; test: Inhibition of fatty acid synthesis in Hordeum vulgare (barley) using [14C]acetate assessed as [14C]-labeled 24C fatty acid level at 100 uM after 3 hr by liquid scintillation counting (reference value: 5 +/- 0.8%); assay type: functional; design: scale not given: the % may be the effect or the level left
# [16] = test system: Cucumis sativus; test: Inhibition of fatty acid synthesis in Cucumis sativus (cucumber) assessed as inhibition of [14C]malonate incoporation in total fatty acids at 100 uM measured as total disintegration per g of fresh weight after 3 hr by liquid scintillation counting (reference value: 7.6 +/- 1.6%); assay type: functional
# [17] = test system: Cucumis sativus; test: Inhibition of fatty acid synthesis in Cucumis sativus (cucumber) using [14C]acetate assessed as [14C]-labeled 18C fatty acid level at 100 uM after 3 hr by liquid scintillation counting (reference value: 26.6 +/- 1.6%); assay type: functional; design: scale not given: the % may be the effect or the level left
# [18] = test system: Cucumis sativus; test: Inhibition of fatty acid synthesis in Cucumis sativus (cucumber) using [14C]acetate assessed as reduction in [14C]-labeled 24C fatty acid level at 100 uM after 3 hr by liquid scintillation counting relative to control; assay type: functional, organism-based
# [19] = test system: Cucumis sativus; test: Inhibition of fatty acid synthesis in Cucumis sativus (cucumber) using [14C]acetate assessed as [14C]-labeled 22C fatty acid level at 100 uM after 3 hr by liquid scintillation counting (reference value: 25.5 +/- 2%); assay type: functional; design: scale not given: the % may be the effect or the level left
# [20] = test system: Cucumis sativus; test: Inhibition of fatty acid synthesis in Cucumis sativus (cucumber) using [14C]malonate assessed as [14C]-labeled 22C fatty acid level at 100 uM after 3 hr by liquid scintillation counting (reference value: 48.5 +/- 6.4%); assay type: functional; design: scale not given: the % may be the effect or the level left
# [21] = test system: Cucumis sativus; test: Inhibition of fatty acid synthesis in Cucumis sativus (cucumber) using [14C]acetate assessed as [14C]-labeled 16C fatty acid level at 100 uM after 3 hr by liquid scintillation counting (reference value: 31.9 +/- 5%); assay type: functional; design: scale not given: the % may be the effect or the level left
# [22] = test system: Cucumis sativus; test: Inhibition of fatty acid synthesis in Cucumis sativus (cucumber) using [14C]malonate assessed as [14C]-labeled 20C fatty acid level at 100 uM after 3 hr by liquid scintillation counting (reference value: 11.5 +/- 3%); assay type: functional; design: scale not given: the % may be the effect or the level left
# [23] = test system: Hordeum vulgare; test: Inhibition of fatty acid synthesis in Hordeum vulgare (barley) using [14C]acetate assessed as [14C]-labeled 16C fatty acid level at 100 uM after 3 hr by liquid scintillation counting (reference value: 29.2 +/- 2.1%); assay type: functional; design: scale not given: the % may be the effect or the level left
# [24] = test system: Hordeum vulgare; test: Inhibition of fatty acid synthesis in Hordeum vulgare (barley) assessed as inhibition of [14C]acetate incoporation in total fatty acids at 100 uM measured as total disintegration per g of fresh weight after 3 hr by liquid scintillation counting (reference value: 9.2 +/- 2.4%); assay type: functional
# [25] = test system: Hordeum vulgare; test: Inhibition of fatty acid synthesis in Hordeum vulgare (barley) using [14C]malonate assessed as [14C]-labeled 16C fatty acid level at 100 uM after 3 hr by liquid scintillation counting (reference value: 3.1 +/- 0.6%); assay type: functional; design: scale not given: the % may be the effect or the level left
# [26] = test system: Cucumis sativus; test: Inhibition of fatty acid synthesis in Cucumis sativus (cucumber) using [14C]malonate assessed as [14C]-labeled 18C fatty acid level at 100 uM after 3 hr by liquid scintillation counting (reference value: 22.5 +/- 2.2%); assay type: functional; design: scale not given: the % may be the effect or the level left
# [27] = test system: Hordeum vulgare; test: Inhibition of fatty acid synthesis in Hordeum vulgare (barley) assessed as inhibition of [14C]malonate incoporation in total fatty acids at 100 uM measured as total disintegration per g of fresh weight after 3 hr by liquid scintillation counting (reference value: 8.8 +/- 2.4%); assay type: functional
compound,measurement,setting,value
Cc1sc(-c2ccc(Cl)cc2)nc1C1C(=O)CC2(CCCCC2)C1=O (configuration not stated) [Spiro-decanedione A],Activity,[1],3.4%
same,pIC50,[2],7.70
same,Activity,[3],10%
same,Activity,[4],33.7%
same,pIC50,[5],8.10
same,Activity,[6],18.6%
same,Activity,[7],24.4%
same,Activity,[8],15.8%
same,Activity,[9],31.2%
same,Activity,[10],8.2%
same,Activity,[11],20.5%
same,Activity,[12],8.9%
same,Activity,[13],25.3%
same,Activity,[14],14.3 ×10⁶ dpm
same,Activity,[15],16.8%
same,Activity,[16],12.7 ×10⁶ dpm
same,Activity,[17],43.8%
same,inhibition,[18],Active
same,Activity,[19],2.3%
same,Activity,[20],43%
same,Activity,[21],50.5%
same,Activity,[22],18.1%
same,Activity,[23],4.6%
same,Activity,[24],3.6 ×10⁶ dpm
same,Activity,[25],0.9%
same,Activity,[26],20%
same,Activity,[27],9.9 ×10⁶ dpm
